Experimental data: PubChem BioAssay AID2060501 (Molecular Pharmacology Branch, DTP, NCI, 2025)

System: 282377-053-R-J1-PDC complex spheroids, viability
Experiment: Anticancer human tumor 282377-053-R-J1-PDC patient-derived colon adenocarcinoma cell line growth inhibition [GQUAD]
Details: for IC50: curve of first compound; for viability, T/C: stronger effect = lower value
Method in brief: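 Viability of tumor cells grown as complex spheroids with endothelial and stromal cells, exposed to drug combinations. Top concentration at or near clinical Cmax (else 10 microM), diluted in half-log increments.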
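Also: spheroids exposed to compounds for 7 days before readout.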
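For viability, T/C in this document: percent of vehicle DMSO control viability with 100% = untreated-like growth.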

For `Cc1[nH]c2ccccc2c1CCNCc1ccc(/C=C/C(=O)NO)cc1` + Cc1cnc(CNC(=O)c2c(=O)c3ccc(N4CCCN(C)CC4)nc3n3c2sc2ccccc23)cn1, the IC50 (second compound 0.0316 µM) was 140 nM, the IC50 (second compound 0.1 µM) was 122 nM and the IC50 (second compound 0.316 µM) was 63.7 nM. The IC50 (second compound 1 µM) was 17.7 nM, the IC50 (second compound 3.16 µM) was under 0.999 nM and the IC50 (second compound 10 µM) was under 0.999 nM. It also gave a viability, T/C (second compound 0.0316 µM, first compound 0.000999 µM) of 86.4%, a viability, T/C (second compound 0.0316 µM, first compound 0.00316 µM) of 87.7% and a viability, T/C (second compound 0.0316 µM, first compound 0.00999 µM) of 129%. For the same molecule, the viability, T/C (second compound 0.0316 µM, first compound 0.0316 µM) was 95.2%, the viability, T/C (second compound 0.0316 µM, first compound 0.0999 µM) was 67.7% and the viability, T/C (second compound 0.0316 µM, first compound 0.316 µM) was 7.24%. It also gave a viability, T/C (second compound 0.1 µM, first compound 0.000999 µM) of 107%, a viability, T/C (second compound 0.1 µM, first compound 0.00316 µM) of 86.6% and a viability, T/C (second compound 0.1 µM, first compound 0.00999 µM) of 106%. For the same molecule, the viability, T/C (second compound 0.1 µM, first compound 0.0316 µM) was 84.3%, the viability, T/C (second compound 0.1 µM, first compound 0.0999 µM) was 60.7% and the viability, T/C (second compound 0.1 µM, first compound 0.316 µM) was 1.3%. It also gave a viability, T/C (second compound 0.316 µM, first compound 0.000999 µM) of 88.4%, a viability, T/C (second compound 0.316 µM, first compound 0.00316 µM) of 75.8% and a viability, T/C (second compound 0.316 µM, first compound 0.00999 µM) of 86.2%. The viability, T/C (second compound 0.316 µM, first compound 0.0316 µM) was 67.8%, the viability, T/C (second compound 0.316 µM, first compound 0.0999 µM) was 37.9% and the viability, T/C (second compound 0.316 µM, first compound 0.316 µM) was 2.14%. The viability, T/C (second compound 1 µM, first compound 0.000999 µM) was 62.9%, the viability, T/C (second compound 1 µM, first compound 0.00316 µM) was 53.8% and the viability, T/C (second compound 1 µM, first compound 0.00999 µM) was 56.3%. It also gave a viability, T/C (second compound 1 µM, first compound 0.0316 µM) of 43%, a viability, T/C (second compound 1 µM, first compound 0.0999 µM) of 33% and a viability, T/C (second compound 1 µM, first compound 0.316 µM) of 0.07%. The viability, T/C (second compound 3.16 µM, first compound 0.000999 µM) was 51.1%, the viability, T/C (second compound 3.16 µM, first compound 0.00316 µM) was 48% and the viability, T/C (second compound 3.16 µM, first compound 0.00999 µM) was 38.5%. It also gave a viability, T/C (second compound 3.16 µM, first compound 0.0316 µM) of 40.5%, a viability, T/C (second compound 3.16 µM, first compound 0.0999 µM) of 19.6% and a viability, T/C (second compound 3.16 µM, first compound 0.316 µM) of 0.2%. It also gave a viability, T/C (second compound 10 µM, first compound 0.000999 µM) of 33.8%, a viability, T/C (second compound 10 µM, first compound 0.00316 µM) of 32.9% and a viability, T/C (second compound 10 µM, first compound 0.00999 µM) of 47%. For the same molecule, the viability, T/C (second compound 10 µM, first compound 0.0316 µM) was 37%, the viability, T/C (second compound 10 µM, first compound 0.0999 µM) was 0.26% and the viability, T/C (second compound 10 µM, first compound 0.316 µM) was 0.36%.
